{"source": "patent US11419857B2", "about": "“Methods and compositions for treating pain” (Apkarian Technologies LLC, priority 2015, dated 2022)", "test_system": "iSPNs in NAc shell slices", "experiment": "Whole-cell patch-clamp recording of iSPN excitability in NAc shell slices, drugs bath applied", "type": "cell-based, mice", "method": "Current clamp recordings were performed to quantify firing properties.\nSulpiride and Bicifadine were obtained from Tocris. CBR12909 was obtained from Sigma-Aldrich. Drugs were bath applied for at least 15 min to establish equilibrium in the tissue.", "data": [{"smiles": "Cc1ccc(C23CNCC2C3)cc1", "note": "(stereo not drawn) [bicifadine]", "values": [{"measurement": "excitability of iSPNs", "setting": "slices from SNI mice, bath application 20 μM", "value": "decreased the excitability of iSPNs"}]}, {"smiles": "CCN1CCCC1CNC(=O)c1cc(S(N)(=O)=O)ccc1OC", "note": "(stereo not drawn) [sulpiride]", "values": [{"measurement": "excitability of iSPNs", "setting": "brain slices from sham mice, 5 μM", "value": "increased the excitability of iSPNs"}, {"measurement": "excitability of iSPNs", "setting": "slices from SNI mice, 5 μM", "value": "no detectable change in iSPNs excitability"}]}]}
